Patent US20060069132A1, “Azolecarboxamide herbicides” (priority 2004, published 2006)

Assays:
[1] = test system: goosegrass; assay: Test E pre-/postemergence herbicide test; type: in vivo, Eleusine indica; conditions: Preemergence
How it was run: (§1)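 Visual 0–100 rating vs untreated controls (0 = no effect, 100 = complete control), 12–14 d after treatment in greenhouse. Pre- and postemergence (2–18 cm, 1- to 4-leaf) applications; compounds in non-phytotoxic solvent with surfactant.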

[2] = test system: bipinnate beggarticks; assay: Test E pre-/postemergence herbicide test; type: in vivo, Bidens bipinnata; conditions: Preemergence
Source text: Seeds of plant species selected from bipinnate beggarticks (Bidens bipinnata L.), hairy beggarticks (Bidens radiata Thuill.), bermudagrass (Cynodon dactylon (L.) Pers.), Surinam grass (Urochloa decumbens (Staph) R. D. Webster, previously named Brachiaria decumbens Stapf), large crabgrass (Digitaria sanguinalis (L.) Scop.), green foxtail (Setaria viridis (L.) P. Beauv.), goosegrass (Eleusine indica (L.) Gaertn.), johnsongrass (Sorghum halepense (L.) Pers.), kochia (Kochia scoparia (L.) Schrad.), pitted morningglory (Ipomoea lacunosa L.), purple nutsedge (Cyperus rotundus L.), common ragweed (Ambrosia elatior L.), mustard (Brassica nigra (L.) W. D. J. Koch), guineagrass (Panicum maximum Jacq.), dallisgrass (Paspalum dilatatum Poir.), barnyardgrass (Echinochloa crus-galli (L). P. Beauv.), southern sandbur (Cenchrus echinatus L.), common sowthistle (Sonchus oleraceous L.), prickly sida (Sida spinosa L.), Italian ryegrass (Lolium multiflorum Lam.), common purslane (Portulaca oleracea L.), broadleaf signalgrass (Brachiaria platyphylla (Griseb.) Nash), common groundsel (Senecio vulgaris L.), common chickweed (Stellaria media (L.) Vill/Cyr.), tropical spiderwort (Commelina benghalensis L.), annual bluegrass (Poa annua L.), downy bromegrass (Bromus tectorum L.), itchgrass (Rottboellia cochinchinensis (L.) L.f.), quackgrass (Elytrigia repens (L.) Nevski), Canada horseweed (Erigeron Canadensis L.), field bindweed (Convolvulus arvensis L.), spotted spurge (Euphorbia maculata L.), common mallow (Malva sylvestris (=s silvestris) L.), and Russian thistle (Salsola kali L. ssp. Ruthenica (Iljin) Soo) were planted and treated preemergence with test chemicals formulated in a non-phytotoxic solvent mixture which included a surfactant.
At the same time, plants selected from these weed species were treated with postemergence applications of some of the test chemicals formulated in the same manner. Plants ranged in height from 2 to 18 cm (1- to 4-leaf stage) for postemergence treatments. Treated plants and controls were maintained in a greenhouse for 12 to 14 days, after which time all species were compared to controls and visually evaluated. Plant response ratings, summarized in Table E, are based on a scale of 0 to 100 where 0 is no effect and 100 is complete control. A dash (-) response means no test result.

[3] = test system: common ragweed; assay: Test E pre-/postemergence herbicide test; type: in vivo, Ambrosia elatior; conditions: Preemergence
How it was run: as §1

[4] = test system: southern sandbur; assay: Test E pre-/postemergence herbicide test; type: in vivo, Cenchrus echinatus; conditions: Preemergence
How it was run: as §1

[5] = test system: purple nutsedge; assay: Test E pre-/postemergence herbicide test; type: in vivo, Cyperus rotundus; conditions: Preemergence
How it was run: as §1

[6] = test system: dallisgrass; assay: Test E pre-/postemergence herbicide test; type: in vivo, Paspalum dilatatum; conditions: Preemergence
How it was run: as §1

[7] = test system: downy bromegrass; assay: Test E pre-/postemergence herbicide test; type: in vivo, Bromus tectorum; conditions: Preemergence
How it was run: as §1

[8] = test system: Russian thistle; assay: Test E pre-/postemergence herbicide test; type: in vivo, Salsola kali; conditions: Preemergence; 500 g ai/ha; scale 0 (no effect) to 100 (complete control)
How it was run: as §1

[9] = test system: field bindweed; assay: Test E pre-/postemergence herbicide test; type: in vivo, Convolvulus arvensis; conditions: Preemergence
How it was run: as §1

[10] = test system: blackgrass; assay: Test C postemergence herbicide test; type: in vivo, Alopecurus myosuroides
How it was run: (§2)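 Ratings (0 = no effect, 100 = complete control) come from visual comparison with untreated plants after 12 to 14 days in the greenhouse. Treatment was postemergence at the 1- to 4-leaf stage (2–18 cm), or at the 2-leaf stage for the flooded paddy barnyardgrass.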

[11] = test system: wheat; assay: Test C postemergence herbicide test; type: in vivo, Triticum aestivum; conditions: postemergence, scale 0 to 100
How it was run: as §2

[12] = test system: winter barley; assay: Test C postemergence herbicide test; type: in vivo, Hordeum vulgare
How it was run: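 Scoring by eye, 12–14 days post-treatment, greenhouse-held plants vs. controls; 0 no effect, 100 complete control. Sprayed at 1–4 leaves (2–18 cm); paddy barnyardgrass at 2 leaves, flooded.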

[13] = 250 g ai/ha, scale 0 (no effect) to 100 (complete control)
[14] = 500 g ai/ha, scale 0 (no effect) to 100 (complete control)
[15] = Postemergence, 250 g ai/ha, scale 0 to 100, 0 no effect, 100 complete control
[16] = postemergence, 125 g ai/ha, scale 0 to 100
[17] = postemergence, 31 g ai/ha, scale 0 to 100
[18] = postemergence, 62 g ai/ha, scale 0 to 100
[19] = Postemergence, 125 g ai/ha, scale 0 to 100, 0 no effect, 100 complete control
[20] = postemergence, 62 g ai/ha, scale 0 to 100 (0 no effect, 100 complete control)

SMILES	Plant response rating, Goosegrass ([1]; 62 g ai/ha, scale 0 to 100)	Plant response rating, Goosegrass ([1]; 125 g ai/ha, scale 0 to 100)	Plant response rating, Goosegrass [1, 13]	Plant response rating, Goosegrass [1, 14]	Plant response rating, Beggarticks, Bip. ([2]; 62 g ai/ha, scale 0 to 100)	Plant response rating, Beggarticks, Bip. [2, 13]	Plant response rating, Ragweed ([3]; 62 g ai/ha, scale 0 to 100)	Plant response rating, Ragweed ([3]; 125 g ai/ha, scale 0 to 100)	Plant response rating, Ragweed [3, 13]	Plant response rating, Ragweed [3, 14]	Plant response rating, Sandbur ([4]; 62 g ai/ha, scale 0 to 100)	Plant response rating, Sandbur ([4]; 125 g ai/ha, scale 0 to 100)	Plant response rating, Sandbur [4, 13]	Plant response rating, Sandbur [4, 14]	Plant response rating, Dallisgrass ([6]; 62 g ai/ha, scale 0 to 100)	Plant response rating, Dallisgrass ([6]; 125 g ai/ha, scale 0 to 100)	Plant response rating, Dallisgrass [6, 13]	Plant response rating, Dallisgrass [6, 14]	Plant response rating, Bromegrass, Downy ([7]; 62 g ai/ha, scale 0 to 100)	Plant response rating, Bromegrass, Downy ([7]; 125 g ai/ha, scale 0 to 100)	further results
CCc1nn(C(C)(C)C)nc1C(=O)Nc1cccc(C(=S)N(C)C)c1 [Compound 395]	80	80	90	95	40	100	10	20	60	60	50	60	80	80	50	70	90	90	40	40	Plant response rating, Beggarticks, Bip. ([2]; 125 g ai/ha, scale 0 to 100): 100; Plant response rating, Beggarticks, Bip. [2, 14]: 100; Plant response rating, Nutsedge, Purple ([5]; 125 g ai/ha, scale 0 to 100): 50; Plant response rating, Nutsedge, Purple [5, 13]: 70; Plant response rating, Nutsedge, Purple [5, 14]: 80; Plant response rating, Bromegrass, Downy [7, 13]: 95; Plant response rating, Bromegrass, Downy [7, 14]: 95; Plant response rating, Thistle [8]: 60; Plant response rating, Bindweed, Field ([9]; 62 g ai/ha, scale 0 to 100): 10; Plant response rating, Bindweed, Field ([9]; 125 g ai/ha, scale 0 to 100): 40; Plant response rating, Bindweed, Field [9, 13]: 60; Plant response rating, Bindweed, Field [9, 14]: 70
Cc1nn(C(C)(C)C)nc1C(=O)Nc1cccc(C(=O)N2CC=CC2)c1 [Compound 393]	10	50	95	95	30	100	0	10	20	80	0	50	50	60	0	10	75	85	0	10	Plant response rating, Beggarticks, Bip. ([2]; 125 g ai/ha, scale 0 to 100): 100; Plant response rating, Beggarticks, Bip. [2, 14]: 100; Plant response rating, Blackgrass [10, 15]: 65; Plant response rating, Blackgrass [10, 16]: 60; Plant response rating, Blackgrass [10, 17]: 55; Plant response rating, Blackgrass [10, 18]: 60; Plant response rating, Nutsedge, Purple [5, 13]: 20; Plant response rating, Nutsedge, Purple [5, 14]: 100; Plant response rating, Bromegrass, Downy [7, 13]: 60; Plant response rating, Bromegrass, Downy [7, 14]: 80; Plant response rating, Wheat ([11]; 125 g ai/ha): 40; Plant response rating, Wheat ([11]; 62 g ai/ha): 35; Plant response rating, Barley, Winter [12, 19]: 35; Plant response rating, Barley, Winter [12, 15]: 35; Plant response rating, Barley, Winter [12, 17]: 20; Plant response rating, Barley, Winter [12, 20]: 35; Plant response rating, Bindweed, Field ([9]; 62 g ai/ha, scale 0 to 100): 0; Plant response rating, Bindweed, Field ([9]; 125 g ai/ha, scale 0 to 100): 20; Plant response rating, Bindweed, Field [9, 13]: 60; Plant response rating, Bindweed, Field [9, 14]: 70
CCc1nn(C(C)(C)C)nc1C(=O)Nc1cccc(C(=O)N(C)CC)c1 [Compound 384]	60	80	85	95	10	100	0	10	40	40	10	60	70	100	10	70	75	90	20	40	Plant response rating, Blackgrass [10, 15]: 45; Plant response rating, Blackgrass [10, 16]: 45; Plant response rating, Blackgrass [10, 17]: 45; Plant response rating, Blackgrass [10, 18]: 45; Plant response rating, Nutsedge, Purple ([5]; 62 g ai/ha, scale 0 to 100): 60; Plant response rating, Bromegrass, Downy [7, 13]: 40; Plant response rating, Bromegrass, Downy [7, 14]: 90; Plant response rating, Wheat ([11]; 125 g ai/ha): 20; Plant response rating, Wheat ([11]; 62 g ai/ha): 10; Plant response rating, Barley, Winter [12, 19]: 35; Plant response rating, Barley, Winter [12, 15]: 35; Plant response rating, Barley, Winter [12, 17]: 0; Plant response rating, Barley, Winter [12, 20]: 10; Plant response rating, Bindweed, Field ([9]; 62 g ai/ha, scale 0 to 100): 80; Plant response rating, Bindweed, Field [9, 13]: 80; Plant response rating, Bindweed, Field [9, 14]: 95
